Bridge positions count the residues as written; N and C are the ends. Peptide text beside a SMILES is read from it.

Common to all, as to experiment: cell-based
For one assay, the target named is human Kv1.3 channel (Homo sapiens, UniProt P22001). In kind it is cell-based.
The target of a further assay is T1, human Kv1.3 (CHO) (Homo sapiens, UniProt P22001).
T1 construct: expressed in transfected cells; host or cells: CHO

In the next assay the target is T2, human Kv1.1 (HEK293) (Homo sapiens, UniProt Q09470).
T2 construct: expressed in transfected cells; host or cells: HEK293
T2 sequence (Q09470 whole entry): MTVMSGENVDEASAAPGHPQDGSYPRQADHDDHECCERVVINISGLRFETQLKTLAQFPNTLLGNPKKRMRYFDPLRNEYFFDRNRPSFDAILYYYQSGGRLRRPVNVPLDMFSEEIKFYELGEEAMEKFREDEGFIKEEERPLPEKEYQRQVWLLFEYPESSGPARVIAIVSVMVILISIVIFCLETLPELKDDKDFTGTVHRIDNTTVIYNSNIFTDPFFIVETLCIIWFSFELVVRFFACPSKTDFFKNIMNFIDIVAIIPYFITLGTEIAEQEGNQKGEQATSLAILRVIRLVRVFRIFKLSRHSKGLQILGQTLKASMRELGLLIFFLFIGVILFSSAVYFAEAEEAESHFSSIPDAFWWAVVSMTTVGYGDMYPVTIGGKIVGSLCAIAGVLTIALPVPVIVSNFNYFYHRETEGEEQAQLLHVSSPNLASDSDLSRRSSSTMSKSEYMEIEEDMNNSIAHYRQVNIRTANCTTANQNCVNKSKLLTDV

In a further assay the target is human Kv1.1 (Homo sapiens, UniProt Q09470). On the set-up: expressed in transfected cells; host or cells: HEK293. The conditions noted are these: Kv1.1 (IC50, pM).
human Kv1.1, sequence (Q09470 whole entry): as above

human Kv1.3 channel, sequence (P22001 whole entry): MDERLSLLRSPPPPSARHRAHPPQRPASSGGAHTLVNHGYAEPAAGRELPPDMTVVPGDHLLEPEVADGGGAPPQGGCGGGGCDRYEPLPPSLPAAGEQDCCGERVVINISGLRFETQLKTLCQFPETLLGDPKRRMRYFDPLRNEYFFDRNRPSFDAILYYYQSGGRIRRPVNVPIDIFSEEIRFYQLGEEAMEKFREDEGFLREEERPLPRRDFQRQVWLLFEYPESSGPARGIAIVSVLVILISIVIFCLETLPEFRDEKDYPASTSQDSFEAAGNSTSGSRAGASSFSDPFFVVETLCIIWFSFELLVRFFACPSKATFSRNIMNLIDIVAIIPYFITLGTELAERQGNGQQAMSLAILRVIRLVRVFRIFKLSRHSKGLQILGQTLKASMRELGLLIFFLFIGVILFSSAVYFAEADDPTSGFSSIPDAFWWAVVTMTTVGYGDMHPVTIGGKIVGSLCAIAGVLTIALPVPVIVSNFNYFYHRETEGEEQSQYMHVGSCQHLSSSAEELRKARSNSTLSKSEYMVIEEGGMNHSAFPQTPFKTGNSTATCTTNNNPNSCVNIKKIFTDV
T1 sequence (P22001 whole entry): as above

The term IC50 denotes the midpoint of a concentration-inhibition curve. Read a low IC50 as inhibition by little substance. As to `CC[C@H](C)[C@@H]1NC(=O)[C@H](CCCCN)NC(=O)[C@@H](NC(=O)[C@H](CCCCN)NC(=O)[C@@H](NC(=O)[C@H](CC(N)=O)NC(=O)[C@@H](NC(=O)[C@@H](NC(=O)[C@@H](NC(=O)CN)C(C)C)[C@@H](C)CC)[C@@H](C)CC)C(C)C)CSSC[C@@H]2NC(=O)[C@H](CCCCN)NC(=O)CNC(=O)[C@H](Cc3ccccc3)NC(=O)[C@H](CCCNC(=N)N)NC(=O)[C@H](CCSC)NC(=O)CNC(=O)[C@H](C)NC(=O)[C@H](CCCCN)NC(=O)[C@H](CCCCN)NC(=O)[C@@H]3CSSC[C@@H](C(=O)N[C@H](C(=O)N4CCC[C@H]4C(=O)N[C@@H](CCCCN)C(=O)O)[C@@H](C)O)NC(=O)[C@H](CCC(=O)O)NC(=O)[C@H](CSSC[C@H](NC(=O)[C@H](CCC(N)=O)NC(=O)[C@H](CCCNC(=N)N)NC(=O)[C@H](CO)NC1=O)C(=O)N[C@@H](CC(C)C)C(=O)N[C@@H](CCC(=O)O)C(=O)N1CCC[C@H]1C(=O)N3)NC(=O)[C@H](CCCCN)NC(=O)CNC(=O)[C@H](CC(N)=O)NC(=O)[C@H](CCSC)NC2=O` [H34E] (H-GVIINVKCKISRQCLEPCKKAGMRFGKCMNGKCECTPK-OH; disulfide 8-28, 14-33, 18-35), the IC50 is 1.32 nM on human Kv1.3 channel, 0.33 nM against human Kv1.3 (CHO), 1.69 nM against human Kv1.1 (HEK293) and 39400 pM on human Kv1.1.
In the same order, the values of `CC[C@H](C)[C@@H]1NC(=O)[C@H](CCCCN)NC(=O)[C@@H](NC(=O)[C@H](CCCCN)NC(=O)[C@@H](NC(=O)[C@H](CC(N)=O)NC(=O)[C@@H](NC(=O)[C@@H](NC(=O)[C@@H](NC(=O)CN)C(C)C)[C@@H](C)CC)[C@@H](C)CC)C(C)C)CSSC[C@@H]2NC(=O)[C@H](CCCCN)NC(=O)CNC(=O)[C@H](Cc3ccccc3)NC(=O)[C@H](CCCNC(=N)N)NC(=O)[C@H](CCSC)NC(=O)CNC(=O)[C@H](C)NC(=O)[C@H](CCCCN)NC(=O)[C@H](CCCCN)NC(=O)[C@@H]3CSSC[C@@H](C(=O)N[C@H](C(=O)N4CCC[C@H]4C(=O)N[C@@H](CCCCN)C(=O)O)[C@@H](C)O)NC(=O)[C@H](Cc4c[nH]cn4)NC(=O)[C@H](CSSC[C@H](NC(=O)[C@H](CCC(N)=O)NC(=O)[C@H](CCCNC(=N)N)NC(=O)[C@H](CO)NC1=O)C(=O)N[C@@H](CCC(=O)O)C(=O)N[C@@H](CCC(=O)O)C(=O)N1CCC[C@H]1C(=O)N3)NC(=O)[C@H](CCCCN)NC(=O)CNC(=O)[C@H](CC(N)=O)NC(=O)[C@H](CCSC)NC2=O` [L15E] (H-GVIINVKCKISRQCEEPCKKAGMRFGKCMNGKCHCTPK-OH; disulfide 8-28, 14-33, 18-35) are 0.19 nM, 0.0475 nM, 0.436 nM and 65000 pM.
In the same order, the values of `CC[C@H](C)[C@@H]1NC(=O)[C@H](CCCCN)NC(=O)[C@@H](NC(=O)[C@H](CCCCN)NC(=O)[C@@H](NC(=O)[C@H](CC(N)=O)NC(=O)[C@@H](NC(=O)[C@@H](NC(=O)[C@@H](NC(=O)CN)C(C)C)[C@@H](C)CC)[C@@H](C)CC)C(C)C)CSSC[C@@H]2NC(=O)[C@H](CCCCN)NC(=O)CNC(=O)[C@H](Cc3ccccc3)NC(=O)[C@H](CCCNC(=N)N)NC(=O)[C@H](CCSC)NC(=O)CNC(=O)[C@H](C)NC(=O)[C@H](CCCCN)NC(=O)[C@H](CCCCN)NC(=O)[C@@H]3CSSC[C@@H](C(=O)N[C@H](C(=O)N4CCC[C@H]4C(=O)N[C@@H](CCCCN)C(=O)O)[C@@H](C)O)NC(=O)[C@H](Cc4c[nH]cn4)NC(=O)[C@H](CSSC[C@H](NC(=O)[C@H](CCC(N)=O)NC(=O)[C@H](CCCNC(=N)N)NC(=O)[C@H](CO)NC1=O)C(=O)N[C@@H](CC(C)C)C(=O)N[C@@H](CCC(=O)O)C(=O)N1CCC[C@H]1C(=O)N3)NC(=O)[C@H](CCCCN)NC(=O)CNC(=O)[C@H](CC(N)=O)NC(=O)[C@H](CCCNC(=N)N)NC2=O` [M29R] (H-GVIINVKCKISRQCLEPCKKAGMRFGKCRNGKCHCTPK-OH; disulfide 8-28, 14-33, 18-35) are 0.76 nM, 0.2 nM, 1.87 nM and 23000 pM.
Take `CC[C@H](C)[C@@H]1NC(=O)[C@H](CCCCN)NC(=O)[C@@H](NC(=O)[C@H](CCCCN)NC(=O)[C@@H](NC(=O)[C@H](CC(N)=O)NC(=O)[C@@H](NC(=O)[C@@H](NC(=O)[C@@H](NC(=O)CN)C(C)C)[C@@H](C)CC)[C@@H](C)CC)C(C)C)CSSC[C@@H]2NC(=O)[C@H](CCCCN)NC(=O)CNC(=O)[C@H](Cc3ccccc3)NC(=O)[C@H](CCCNC(=N)N)NC(=O)[C@H](CCSC)NC(=O)CNC(=O)[C@H](C)NC(=O)[C@H](CCCCN)NC(=O)[C@H](CCCCN)NC(=O)[C@@H]3CSSC[C@@H](C(=O)N[C@H](C(=O)N4CCC[C@H]4C(=O)N[C@@H](CCCCN)C(=O)O)[C@@H](C)O)NC(=O)[C@H](Cc4c[nH]cn4)NC(=O)[C@H](CSSC[C@H](NC(=O)[C@H](CCC(N)=O)NC(=O)[C@H](CCCNC(=N)N)NC(=O)[C@H](CO)NC1=O)C(=O)N[C@@H](CC(C)C)C(=O)N[C@@H](CCC(=O)O)C(=O)N1CCC[C@H]1C(=O)N3)NC(=O)[C@H](CCCCN)NC(=O)CNC(=O)[C@H](C)NC(=O)[C@H](CCSC)NC2=O` [N30A] (H-GVIINVKCKISRQCLEPCKKAGMRFGKCMAGKCHCTPK-OH; disulfide 8-28, 14-33, 18-35): the 50% inhibitory concentration (IC50) is 0.766 nM at human Kv1.3 channel, 0.693 nM on human Kv1.3 (CHO), over 3 nM on human Kv1.1 (HEK293) and 10200 pM at human Kv1.1.
Turning to `CC[C@H](C)[C@@H]1NC(=O)[C@H](CCCCN)NC(=O)[C@@H](NC(=O)[C@H](CCCCN)NC(=O)[C@@H](NC(=O)[C@H](CC(N)=O)NC(=O)[C@@H](NC(=O)[C@@H](NC(=O)[C@@H](NC(=O)CN)C(C)C)[C@@H](C)CC)[C@@H](C)CC)C(C)C)CSSC[C@@H]2NC(=O)[C@H](CCCCN)NC(=O)CNC(=O)[C@H](Cc3ccccc3)NC(=O)[C@H](CCCNC(=N)N)NC(=O)[C@H](CCSC)NC(=O)CNC(=O)[C@H](C)NC(=O)[C@H](CCCCN)NC(=O)[C@H](CCCCN)NC(=O)[C@@H]3CSSC[C@@H](C(=O)N[C@H](C(=O)N[C@@H](CCC(=O)O)C(=O)N[C@@H](CCCCN)C(=O)O)[C@@H](C)O)NC(=O)[C@H](Cc4c[nH]cn4)NC(=O)[C@H](CSSC[C@H](NC(=O)[C@H](CCC(N)=O)NC(=O)[C@H](CCCNC(=N)N)NC(=O)[C@H](CO)NC1=O)C(=O)N[C@@H](CC(C)C)C(=O)N[C@@H](CCC(=O)O)C(=O)N1CCC[C@H]1C(=O)N3)NC(=O)[C@H](CCCCN)NC(=O)CNC(=O)[C@H](CC(N)=O)NC(=O)[C@H](CCSC)NC2=O` [P37E] (H-GVIINVKCKISRQCLEPCKKAGMRFGKCMNGKCHCTEK-OH; disulfide 8-28, 14-33, 18-35), the IC50 against human Kv1.3 channel amounted to 0.241 nM; against human Kv1.3 (CHO), 0.0627 nM; at human Kv1.1 (HEK293) it was 0.622 nM; on human Kv1.1 it was 15700 pM.

(Values after patent US20090299044A1 (priority 2006, published 2009).)
